Laboratory results taken from patent publication US20250186365A1, “COMBINATION OF ANTISPASMODIC AND OSMOTIC AGENTS FOR TOPICAL PRODUCTS AND METHOD OF USE THEREOF” (priority 2023, published 2025).
Entries after “also recorded” stand apart in the source; their conditions may differ.

Assays:
hairless mice = assay: Rotarod performance study in hairless mice; assay type: in vivo; settings: 5% HD topical; for time spent on Rota Rod: 20 rpm, vehicle 60 seconds
Procedure: Once the mice were trained, the rod was rotated at a constant speed of 20 rpm. Then the mice were placed on the rotating rod and length of time they could stay on the rotating rod was measured.
The Rotarod study was to investigate the skeletal muscle relaxant effects of HD, specifically its impact on motor coordination and balance in hairless mice. The study was structured to assess both the kinetics of HD's effect over time and its efficacy in inducing muscle relaxation. Efficacy of HD was determined post-treatment at intervals of 15, 30, 60, 75, 90 minutes. Control and Treatment Groups: Each stage included a control group receiving vehicle (Aloe Vera Gel) and a test group treated with HD, 5% w/w HD (0.5 g) in the vehicle (9.5 g Aloe Vera Gel). The topical treatment was applied to the thighs of all four limbs for each mouse.

hind limb muscle = assay: Rat hind limb muscle twitch study; assay type: in vivo, Sprague-Dawley rats
Procedure: Adverting now to the drawings, FIG. 1 is a schematic diagram of a validated muscle twitch experimental set-up in the present disclosure. Here, anesthetized Sprague-Dawley rats were prepared for muscle contraction assessment of their hind limbs. The hind limbs were shaved and secured at the knee and ankle joints to prevent movement. The distal tendon of the targeted muscle was connected to a high-sensitivity force transducer to measure contractile force with precision. Electrical stimulation was delivered via electrodes positioned on the sciatic nerve to evoke muscle contractions. Vehicle (control study) or 5% w/w of HD was topically applied to the dermal area corresponding to the muscle group under study, ensuring proximity for local diffusion and effect. A study was performed to evaluate the effects of HD on muscle contractility using a validated in vivo rat model. The experimental setup was meticulously designed to measure the contractile force of the hind limb muscle in response to electrical stimulation of the sciatic nerve, providing a quantitative assessment of muscle relaxation and contraction dynamics in the presence of HD. Anesthetized Sprague-Dawley rats were used for this study, ensuring minimal variability in response to HD application. Hind limbs were shaved and then immobilized at the knee and ankle joints to isolate the effect to the targeted muscle group. […]

[1] = tested on: mouse extensor digitorum longus muscles; assay: Isolated mouse muscle contraction study
Procedure: FIG. 4 is a schematic diagram of a validated isolated mouse muscle contraction study. The mouse muscles were isolated and placed in a physiological buffer within a tissue bath. Muscles were anchored at one end to the chamber floor and connected at the other end to a force transducer. After establishing a baseline response to the electrical field stimulation, HD was added to the buffer at concentrations ranging from 0.01% w/w to 1% w/w, and the impact on muscle contractile force was recorded over time at the fixed frequency of 150 Hz.
This subsequent study was aimed to elucidate the specific effects of HD on isolated muscle tissue from mice, to quantify its potential use as a muscle relaxant. The study's design allowed for the controlled assessment of muscle contractility in a physiological buffer, minimizing external variables present in in vivo models. Muscle Isolation: The mouse extensor digitorum longus muscles were carefully dissected and mounted in a tissue bath super fused with oxygenated physiological buffer, ensuring tissue viability throughout the experiment (FIG. 4). Baseline Measurement: Initial contractile responses were established via electrical field stimulation at various frequencies, setting a comparative baseline for subsequent HD application effects. HD Application: Differing concentrations of HD (ranging from 0.01% to 1%) were introduced to the buffer. The muscle's contractile force (amplitude, which is the maximum contractile force) was determined to assess HD's concentration-dependent effects (FIG. 6). Stimulation Frequency Adjustment: To explore the frequency-dependent nature of HD's action, muscles underwent varied frequencies of electrical stimulation. This protocol is aimed to simulate conditions of sporadic muscle spasms.

Q: Which results are given for `CCCCC(O)CO` (centres unmarked) [HD, 1,2-hexanediol]?
A: recovery from the muscle relaxant effect (hairless mice): complete recovery of all mice; time spent on Rota Rod (hairless mice; 30 minutes post treatment): significant decrease; time spent on Rota Rod (hairless mice; 60 minutes post treatment): significant decrease; duration of muscle contraction (hind limb muscle; 5% w/w HD topical vs vehicle, p<0.05): statistically significant reduction; ability to maintain tetanic contraction during the stimulus period (hind limb muscle; 5% w/w HD topical, electrical stimulation at 150 Hz): failing to maintain tetanic tension; also recorded: unable to maintain tetanic contraction; inhibitory effect on muscle contraction ([1]; 0.01% HD in buffer, 150 Hz): minimal effects; also recorded: No significant inhibitory effect; reduction in contractile force ([1]; 0.1% HD in buffer, 150 Hz, vs vehicle controls): about 44%; torque generation against stimulus frequency ([1]; 0.5% HD vs vehicle, n=5, p<0.01): frequency-dependent decrease in torque generation; also recorded: inhibition is more complete at higher frequencies of stimulation
